The source made the active and inactive calls. The rule behind the calls is not given here.
Columns and labels:
[1] = system: Mus musculus; assay: Antiinflammatory activity in DBA/1J mouse model of collagen-induced arthritis assessed as reduction in plasma IL-6 level at 20 mg/kg, po dosed twice daily for 21 days (reference value: 80 +/- 6 pg/ml); format: functional; settings: time 21 day
[2] = Tmax in Sprague-Dawley rat at 4 mg/kg, po; format: ADME, organism-based; settings: in vivo
[3] = system: Mus musculus; assay: Suppression of ear thickness in C57BL/6 mouse model of IL-23 induced acanthosis model of psoriasis assessed as AUC of %change in ear thickness at 20 mg/kg, po BID for 10 days measured every other day; format: functional; settings: time 10 day
[4] = Decrease in LCN2 gene expression in C57BL/6 mouse model of IL-23 induced acanthosis model of psoriasis at 5 mg/kg, po BID for 10 days by RT-PCR analysis; format: functional; settings: C57BL/6, po, 240 h, time 10 day
[5] = system: Mus musculus; assay: Antiinflammatory activity in DBA/1J mouse model of collagen-induced arthritis assessed as reduction in clinical score at 10 mg/kg, po dosed twice daily for 21 days measured on day 51; format: functional; settings: 504 h, time 21 day
[6] = Decrease in IL-17a gene expression in C57BL/6 mouse model of IL-23 induced acanthosis model of psoriasis at 20 mg/kg, po BID for 10 days by RT-PCR analysis; format: functional; settings: C57BL/6, po, 240 h, time 10 day
[7] = Oral bioavailability in Balb/c mouse at 4 mg/kg; format: ADME, organism-based; settings: in vivo
[8] = Unbound volume of distribution at steady state in cynomolgus monkey at 1 mg/kg, iv; format: ADME, organism-based, Macaca fascicularis; settings: in vivo
[9] = biological target: T1, Nuclear receptor ROR-beta (Homo sapiens, UniProt Q92753); assay: Inhibition of RORbeta (unknown origin)
T1 sequence (Q92753 whole entry): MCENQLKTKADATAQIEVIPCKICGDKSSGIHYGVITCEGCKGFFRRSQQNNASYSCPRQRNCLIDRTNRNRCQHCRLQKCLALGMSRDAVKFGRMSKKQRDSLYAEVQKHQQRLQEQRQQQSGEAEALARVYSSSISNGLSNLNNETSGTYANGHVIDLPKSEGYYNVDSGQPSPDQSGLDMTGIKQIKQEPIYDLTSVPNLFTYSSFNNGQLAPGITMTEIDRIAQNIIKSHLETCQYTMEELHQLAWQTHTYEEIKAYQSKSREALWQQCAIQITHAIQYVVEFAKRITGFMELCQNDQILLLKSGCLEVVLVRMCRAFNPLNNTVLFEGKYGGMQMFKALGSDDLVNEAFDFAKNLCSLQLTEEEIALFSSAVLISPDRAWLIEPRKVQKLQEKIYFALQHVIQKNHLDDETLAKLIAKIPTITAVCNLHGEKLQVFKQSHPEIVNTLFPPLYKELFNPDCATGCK

[10] = AUC in cynomolgus monkey at 1 mg/kg, iv; format: ADME, organism-based, Macaca fascicularis; design: dose 1 mg/kg; settings: in vivo
[11] = Decrease in IL-6 gene expression in C57BL/6 mouse model of IL-23 induced acanthosis model of psoriasis at 20 mg/kg, po BID for 10 days by RT-PCR analysis; format: functional; settings: C57BL/6, po, 240 h, time 10 day
[12] = system: Mus musculus; assay: Antiinflammatory activity in DBA/1J mouse model of collagen-induced arthritis assessed as reduction in histological score at 5 mg/kg, po dosed twice daily for 21 days; format: functional; settings: 504 h, time 21 day
[13] = system: Mus musculus; assay: Antiinflammatory activity in DBA/1J mouse model of collagen-induced arthritis assessed as reduction in plasma IL-6 level at 5 mg/kg, po dosed twice daily for 21 days (reference value: 80 +/- 6 pg/ml); format: functional; settings: time 21 day
[14] = AUC in dog at 2 mg/kg, po; format: ADME, organism-based, Canis lupus familiaris; design: dose 2 mg/kg; settings: in vivo
[15] = Half life in Balb/c mouse at 2 mg/kg, iv; format: ADME, organism-based; settings: in vivo
[16] = Half life in Sprague-Dawley rat at 2 mg/kg, iv; format: ADME, organism-based; settings: in vivo
[17] = Decrease in LCN2 gene expression in C57BL/6 mouse model of IL-23 induced acanthosis model of psoriasis at 10 mg/kg, po BID for 10 days by RT-PCR analysis; format: functional; settings: C57BL/6, po, 240 h, time 10 day
[18] = system: Mus musculus; assay: Suppression of ear thickness in C57BL/6 mouse model of IL-23 induced acanthosis model of psoriasis assessed as AUC of %change in ear thickness at 5 mg/kg, po BID for 10 days measured every other day; format: functional; settings: time 10 day
[19] = Oral bioavailability in dog at 2 mg/kg; format: ADME, organism-based, Canis lupus familiaris; settings: in vivo
[20] = Half life in dog at 1 mg/kg, iv; format: ADME, organism-based, Canis lupus familiaris; settings: in vivo
[21] = biological target: T2, Cytochrome P450 2C8 (Homo sapiens, UniProt P10632); assay: Inhibition of CYP2C8 (unknown origin); format: ADME
T2 sequence (P10632 whole entry): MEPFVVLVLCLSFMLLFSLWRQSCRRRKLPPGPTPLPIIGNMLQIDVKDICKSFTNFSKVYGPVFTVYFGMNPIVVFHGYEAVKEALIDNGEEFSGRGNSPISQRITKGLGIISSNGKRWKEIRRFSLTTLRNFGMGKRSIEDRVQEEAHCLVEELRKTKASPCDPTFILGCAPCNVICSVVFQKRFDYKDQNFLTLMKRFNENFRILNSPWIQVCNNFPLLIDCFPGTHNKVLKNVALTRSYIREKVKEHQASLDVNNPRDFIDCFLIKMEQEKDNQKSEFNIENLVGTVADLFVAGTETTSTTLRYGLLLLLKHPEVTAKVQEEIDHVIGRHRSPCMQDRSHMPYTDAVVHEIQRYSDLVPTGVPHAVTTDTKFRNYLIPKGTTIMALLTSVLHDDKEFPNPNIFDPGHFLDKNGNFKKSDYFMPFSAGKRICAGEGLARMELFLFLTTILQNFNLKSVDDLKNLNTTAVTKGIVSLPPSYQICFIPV

[22] = Decrease in IL-17a gene expression in C57BL/6 mouse model of IL-23 induced acanthosis model of psoriasis at 10 mg/kg, po BID for 10 days by RT-PCR analysis; format: functional; settings: C57BL/6, po, 240 h, time 10 day
[23] = Oral bioavailability in cynomolgus monkey at 2 mg/kg; format: ADME, organism-based, Macaca fascicularis; settings: in vivo
[24] = Oral bioavailability in Sprague-Dawley rat at 4 mg/kg; format: ADME, organism-based; settings: in vivo
[25] = Clearance in dog at 1 mg/kg, iv; format: ADME, organism-based, Canis lupus familiaris; settings: in vivo
[26] = AUC in dog at 1 mg/kg, iv; format: ADME, organism-based, Canis lupus familiaris; design: dose 1 mg/kg; settings: in vivo
[27] = Clearance in Balb/c mouse at 2 mg/kg, iv; format: ADME, organism-based; settings: in vivo
[28] = Clearance in cynomolgus monkey at 1 mg/kg, iv; format: ADME, organism-based, Macaca fascicularis; settings: in vivo
[29] = AUC in cynomolgus monkey at 2 mg/kg, po; format: ADME, organism-based, Macaca fascicularis; design: dose 2 mg/kg; settings: in vivo
[30] = Unbound volume of distribution at steady state in Balb/c mouse at 2 mg/kg, iv; format: ADME, organism-based; settings: in vivo
[31] = Protein binding in mouse serum assessed as fraction unbound; format: ADME, cell-free; settings: read-out: PB
[32] = AUC in Balb/c mouse at 4 mg/kg, po; format: ADME, organism-based; design: dose 4 mg/kg; settings: in vivo
[33] = system: Mus musculus; assay: Antiinflammatory activity in DBA/1J mouse model of collagen-induced arthritis assessed as reduction in Anti-CII Ab level at 5 to 20 mg/kg, po dosed twice daily for 21 days; format: functional, organism-based; settings: dose 5-20 mg/kg, time 21.0 day
[34] = Cmax in cynomolgus monkey at 2 mg/kg, po; format: ADME, organism-based, Macaca fascicularis; design: route oral, dose 2 mg/kg; settings: in vivo

C[C@@](O)(CS(C)(=O)=O)C(=O)N[C@@H]1CC[C@@]2(S(=O)(=O)c3ccc(F)cc3)c3ccc(C(F)(C(F)(F)F)C(F)(F)F)nc3CC[C@@H]12
Activity [1]: 19 pg/mL | Tmax [2]: 4 h | Activity [3]: 77.2% | inhibition in vivo at 5 mg/kg [4]: 62.4% | inhibition in vivo at 10 mg/kg [5]: 64% | inhibition in vivo at 20 mg/kg [6]: 87.7% | bioavailability [7]: 101% | fVdss [8]: 2.7 L/kg | EC50 [9]: > 10 µM | AUC [10]: 9 µM·h | inhibition in vivo at 20 mg/kg [11]: 77.4% | inhibition in vivo at 5 mg/kg [12]: 59% | Activity [13]: 26 pg/mL | AUC [14]: 163 µM·h | half-life [15]: 11 h | half-life [16]: 13 h | inhibition in vivo at 10 mg/kg [17]: 85.3% | Activity [18]: 34.4% | bioavailability [19]: 72% | half-life [20]: 67 h | IC50 [21]: 7.6 µM | inhibition in vivo at 10 mg/kg [22]: 73.8% | bioavailability [23]: 73% | bioavailability [24]: 85% | clearance [25]: 0.22 mL/min/kg | AUC [26]: 114 µM·h | clearance [27]: 2.1 mL/min/kg | clearance [28]: 2.8 mL/min/kg | AUC [29]: 13.2 µM·h | fVdss [30]: 2.2 L/kg | fraction unbound [31]: 0.015 | AUC [32]: 45.9 µM·h | Activity [33]: Active | Cmax [34]: 600 nM

— ChEMBL document CHEMBL4706752 (ACS Med Chem Lett, 2021)
